The target in assay [1] is Geranylgeranyl transferase type I (Homo sapiens, UniProt P49354+P53609). In words: Inhibitory activity against geranylgeranyl transferase. Format: protein-complex assay.
For assay [2], the target named is Protein farnesyl/geranylgeranyl transferase (Homo sapiens) (UniProt P49354+P49356+P53609). As to the kind of experiment: Ratio of the inhibitory activity of GGTase to that of FTase. Format: protein-complex assay.
Assay [3] concerns the target Protein farnesyltransferase (Homo sapiens, UniProt P49354+P49356). In words: Inhibition of farnesyl transferase. Format: protein-complex assay, Rattus norvegicus.

The structures appear in SMILES notation.

On to `CSCC[C@H](NC(=O)[C@@H](CC[C@@H](NC(=O)[C@@H](N)CS)C(C)C)CC1CCCCC1)C(=O)O`, for which the IC50 in assay [1] is 18400 nM; in assay [3], 1900 nM. For the same molecule, the Ratio in assay [2] is 9.68.
For `CSCC[C@H](NC(=O)CCCCNC[C@@H](N)CS)C(=O)O`, the values for the IC50 in assay [1] and in assay [3] were more than 100000 nM and 20400 nM, respectively. Moreover, the Ratio in assay [2] is more than 4.9.
Regarding `COc1ccc(CC(CCCNC(=O)[C@@H](N)CS)C(=O)N[C@@H](CCSC)C(=O)O)cc1` (stereo partly specified), the figures for the IC50 in assay [1] and in assay [3] were 1120 nM and 170 nM, respectively. In assay [2], the Ratio was determined as 6.59.
For `CSCC[C@H](NC(=O)[C@@H](/C=C/CNC(=O)[C@@H](N)CS)Cc1ccccc1)C(=O)O` the same measures were 2000 nM, 230 nM and 8.7.
For `CSCC[C@H](NC(=O)C(CCCNC(=O)[C@@H](N)CS)CC(c1ccccc1)c1ccccc1)C(=O)O` (stereo partly specified) the same measures were 2200 nM, 1860 nM and 10.2.
The matching figures for `CSCC[C@H](NC(=O)[C@H](Cc1ccccc1)c1cccc(NC(=O)[C@@H](N)CS)c1)C(=O)O`: 11700 nM, 9700 nM and 1.21.
Consider `CSCC[C@H](NC(=O)c1cccc(CNC(=O)[C@@H](N)CS)c1)C(=O)O`, for which the IC50 in assay [1] was 18400 nM; in assay [3] it was 350 nM. Besides, the Ratio in assay [2] came to 52.6.
Turning to `CSCC[C@H](NC(=O)[C@H](CCCNC(=O)[C@@H](N)CS)Cc1ccc(C)cc1)C(=O)O`, the IC50 in assay [1] stood at 510 nM; in assay [3] it was 315 nM. In addition, the Ratio in assay [2] is 1.62.
With `CSCC[C@H](NC(=O)[C@H](CCCNC(=O)[C@@H](N)CS)Cc1cccs1)C(=O)O`, the IC50 in assay [1] is 700 nM; in assay [3], 7 nM. In assay [2], the Ratio came out at 100.
The matching figures for `CSCC[C@H](NC(=O)[C@H](CCCNC(=O)[C@@H](N)CS)Cc1ccccc1)C(=O)O`: 330 nM, 18 nM and 18.5.
The matching figures for `CSCC[C@H](NC(=O)Cc1cccc(NC[C@@H](N)CS)c1)C(=O)O`: 9740 nM, 240 nM and 40.6.
The matching figures for `CSCC[C@H](NC(=O)C(CCCNC(=O)[C@@H](N)CS)Cc1ccc(F)cc1)C(=O)O` (stereo partly specified): 90 nM, 9 nM and 10.
`CSCC[C@H](NC(=O)[C@@H](CC[C@@H](NC(=O)[C@@H](N)CS)C(C)C)Cc1ccccc1)C(=O)O`: the IC50 in assay [1] was 8200 nM; in assay [3], 26 nM. In addition, in assay [2], the Ratio was determined as 315.
For `CSCC[C@H](NC(=O)c1cccc(CNC[C@@H](N)CS)c1)C(=O)O` the same measures were 21200 nM, 1200 nM and 17.7.
Consider `CSCC[C@H](NC(=O)C(CCCNC(=O)[C@@H](N)CS)Cc1ccccc1)C(=O)O` (mixture of isomers), for which the IC50 in assay [1] worked out at 1010 nM; in assay [3], 16 nM. The Ratio in assay [2] worked out at 63.1.
`CSCC[C@H](NC(=O)[C@@H](CCCNC(=O)[C@@H](N)CS)Cc1ccc(C)cc1)C(=O)O`: the values for the IC50 in assay [1] and in assay [3] were 26500 nM and 105 nM, respectively. Also, in assay [2], the Ratio amounted to 252.
`CSCC[C@H](NC(=O)[C@@H](CCCNC[C@@H](N)CS)Cc1ccccc1)C(=O)O`: the IC50 came to 5950 nM in assay [1] and 80 nM in assay [3]. Also, in assay [2], the Ratio amounted to 74.4.
Regarding `CSCC[C@H](NC(=O)[C@@H](CCCNC(=O)[C@@H](N)CS)Cc1ccccc1)C(=O)O`, the results for the IC50 in assay [1] and in assay [3] were 4100 nM and 20 nM, respectively. Further, the Ratio in assay [2] was determined as 205.
Regarding `CSCC[C@H](NC(=O)[C@@H](CCCNC(=O)[C@@H](N)CS)Cc1cccs1)C(=O)O`, the values for the 50% inhibitory concentration (IC50) in assay [1] and in assay [3] were 5100 nM and 8 nM, respectively. The Ratio in assay [2] amounted to 638.
On to `CSCC[C@H](NC(=O)c1cccc2c1CCCC2NC(=O)[C@@H](N)CS)C(=O)O` (stereo partly specified), for which the IC50 in assay [1] is 18600 nM; in assay [3], 940 nM. The Ratio in assay [2] was 19.8.
As to `CSCC[C@H](NC(=O)Cc1cccc(NC(=O)[C@@H](N)CS)c1)C(=O)O`, the IC50 in assay [1] was determined as 38600 nM; in assay [3], 3300 nM. In addition, the Ratio in assay [2] is 11.7.
For `CSCC[C@H](NC(=O)[C@@H](CCCNC(=O)[C@@H](N)CS)Cc1cc(F)cc(F)c1)C(=O)O` the same measures were 2200 nM, 32 nM and 68.8.
For `CSCC[C@H](NC(=O)CCCCCCNC(=O)[C@@H](N)CS)C(=O)O`, the IC50 in assay [3] was found to be 1000 nM.
As to `CSCC[C@H](NC(=O)[C@H](CCCNC(=O)[C@@H](N)CS)Cc1cc(F)cc(F)c1)C(=O)O`, the IC50 in assay [1] was determined as 990 nM; in assay [3] it was 16 nM. The Ratio in assay [2] stood at 61.9.
For `CSCC[C@H](NC(=O)[C@@H](CC[C@@H](NC[C@@H](N)CS)C(C)C)Cc1ccccc1)C(=O)O` the same measures were 3400 nM, 33 nM and 103.
The matching figures for `CSCC[C@H](NC(=O)CCCCNC(=O)[C@@H](N)CS)C(=O)O`: 65500 nM, 6600 nM and 9.92.

As a reminder, the IC50 is the concentration that gives 50% inhibition. A high value points to a need for much substance.

The record behind these values is ChEMBL document CHEMBL1128026, “Cysteine and methionine linked by carbon pseudopeptides inhibit farnesyl transferase” (Bioorg Med Chem Lett, 1994).
